Experimental data as given in patent US20260308128A1, “BETA-ELEMENE DERIVATIVE CONTAINING PHOTOAFFINITY GROUP DIAZIRINE, AND PREPARATION METHOD AND USE THEREOF AS PHOTOAFFINITY MOLECULAR PROBE” (HANGZHOU NORMAL UNIVERSITY, priority 2022, published 2026).
Like-named read-outs stand apart in the source and are kept apart here.

Tests used:
[1] = system: U87-MG human malignant glioma cells; assay: Tumor cell proliferation inhibition (CCK-8), U87-MG; format: cell-based; settings: for IC50: Homo sapiens, U-87 MG, 48 h, read-out: IC50 U87; for IC50 times lower than that of β-elemene: human U87-MG malignant glioma cells, versus β-elemene
Procedure: (§1) Human liver cancer cell Huh1, human lung cancer cell A549, and human brain glioma cell U87-MG.
(§2) • (1) A cell laboratory was routinely disinfected and a clean bench was subjected to ultraviolet radiation for more than 30 min. • (2) A culture solution (DMEM) and 0.25% trypsin were preheated in a constant-temperature water bath at 37° C. for 20 min, and dimethyl sulfoxide (DMSO) was refrigerated in a refrigerator at 4° C. for 30 min. • (3) A cryopreserved tube was taken out of a liquid nitrogen storage tank, immediately placed in a 37° C. water bath and shaken rapidly until s cryopreserved liquid was completely thawed. • (4) A cell suspension was transferred into a centrifuge tube, the culture solution was slowly added thereto, and the centrifuge tube was transferred into a centrifuge for centrifugation (120×g, 5 min). • (5) A cell concentration was adjusted with the culture solution, and resulting adjusted cells were shaken well, and placed in a 37° C., 5% CO2 incubator for culture. • (6) After the cells had attached for 24 h, the culture solution thereof was changed. When a cell density reached 80% to 90%, the cells were digested with trypsin and then subcultured.
(§3) • (1) A A549 cell suspension was adjusted to 5×10^4 cells/mL using a DMEM culture medium. […] The cells were cultured in the incubator for 1 h and an absorbance at 450 nm was measured using a THERMO FISHER Multiskan FC microplate reader. • (5) IBM SPSS Statistics 22.0 software was used to plot an S-shaped dose-survival curve using a non-linear regression model, and a survival rate and an inhibition rate were calculated using the following formulas:
(§4) [formula] [formula] • As: absorbance of the experimental well (culture medium containing cells, CCK-8, and the drug to be tested) • Ac: absorbance of the control well (culture medium containing cells, CCK-8, and no drug to be tested) • Ab: absorbance of the blank wells (culture medium without cells and drug to be tested, CCK-8)
(§5) According to the above experimental method, CCK-8 was used to determine the proliferation inhibitory effects of the isolated and purified β-elemene monomer, elemene photoaffinity probe and control compounds on three human cancer cells, namely A549 human non-small cell lung cancer cells, U87-MG human malignant glioma cells, and Huh1 human liver cancer cells.

[2] = system: Huh1 human liver cancer cells; assay: Tumor cell proliferation inhibition (CCK-8), Huh1; format: cell-based; settings: for IC50: Homo sapiens, read-out: IC50 Huh1; for IC50 times lower than that of β-elemene: human Huh1 liver cancer cells, versus β-elemene
Procedure: as §1, §2, §3, §4, §5

[3] = system: A549 human non-small cell lung cancer cells; assay: Tumor cell proliferation inhibition (CCK-8), A549; format: cell-based; settings: for IC50: Homo sapiens, read-out: IC50 A549; for IC50 times lower than that of β-elemene: human A549 lung cancer cells, versus β-elemene
Procedure: as §1, §2, §3, §4, §5

[4] = system: Huh1 liver cancer cells; assay: Pre-targeted imaging using molecular probe in living cells (365 nm photo-crosslinking, N3-TAMRA click, confocal microscopy); format: cell-based, human
Procedure: In order to determine whether the molecular probe could enter the cell and explore the binding site of the targeted biomacromolecule thereof, the experiment was conducted as follows.
DMEM culture medium, PBS, 4% paraformaldehyde tissue cell fixative, Triton X-100, 5% BSA blocking solution, DAPI staining solution, Cu2SO4, sodium ascorbate, THPTA, N3-TAMRA
• (1) 10^5 Huh1 liver cancer cells were inoculated into glass-bottomed culture dishes and cultured in a 37° C., 5% CO2 incubator until the cells adhered to wall. • (2) DMEM culture medias containing different drug concentrations were added to the culture dishes and incubated overnight in the 37° C., 5% CO2 incubator. • (3) After removing the drug-containing culture mediums, resulting cells were washed with pre-cooled PBS ([…]) for 3 min, placed on ice, and irradiated at 365 nm for 15 min. • (4) Resulting irradiated cells were treated with 1 mL of 4% paraformaldehyde tissue cell fixative for 15 min, the paraformaldehyde tissue cell fixative was removed, and resulting cells were washed with pre-cooled PBS. • (5) Resulting washed cells were permeabilized with 500 μL of 0.1% Triton X-100 in PBS for 10 min, then blocked with 1 mL of 5% BSA blocking solution for 30 min, the blocking solution was removed, and resulting cells were washed with pre-cooled PBS (3×1 mL). • (6) 200 μL of freshly prepared Click reaction solution (20 μM N3-TAMRA, 400 μM Cu2SO4, 400 μM THPTA, 2 mM sodium ascorbate) was added to washed cells obtained in step • (5), incubated under shaking at room temperature for 2 h, the reaction solution was removed, and resulting cells were washed with pre-cooled PBS (3×1 mL) for 3 min. • (7) 200 μL of DAPI staining solution was added to washed cells obtained in step (6) and stained for 6 min, the staining solution was removed, and resulting cells were washed with pre-cooled PBS (3×1 mL) for 3 min, and then imaged with a laser scanning confocal microscope.
According to the above experimental method, the cell images of the β-elemene photoaffinity probe (Compound 2) and a control Compound 6 and β-elemene were measured.

Row | SMILES | IC50 ([1]; U87-MG cells, CCK-8) [µM] | IC50 ([2]; HuH-1, Huh1 cells, 48 h, CCK-8) [µM] | IC50 times lower than that of β-elemene [2] | IC50 ([3]; A549 cells, 48 h, CCK-8) [µM] | IC50 times lower than that of β-elemene [3] | IC50 times lower than that of β-elemene [1] | intracellular Rhodamine Red fluorescence, with UV irradiation ([4]; 20 μM, with UV irradiation (365 nm, 15 min)) | intracellular Rhodamine Red fluorescence, without UV irradiation ([4]; 20 μM, without UV irradiation) | binding of the probe to the target ([4]; conclusion from competition imaging) | IC50 [1] [µM] | IC50 ([2]; HuH-1, 48 h) [µM] | IC50 ([3]; A549, 48 h) [µM] | intensity of intracellular Rhodamine Red fluorescence of Compound 2 in presence of competitor ([4]; competitor β-elemene (50 μM) with Compound 2 (20 μM), UV irradiation) | competitive binding ([4]; versus Compound 2, conclusion from competition imaging)
1 | C#CCCC(=O)NCCOCCOCCC(=O)N[C@H](CCC1(C)N=N1)C(=O)N1CC2CN(CC(=C)[C@@H]3CC[C@@](C)(C=C)[C@H](C(=C)C)C3)CC2C1 (stereo partly drawn) [Compound 4] | 47.2 ± 2.21 | 54.5 ± 3.26 |  | 48.4 ± 1.7 |  |  |  |  |  |  |  |  |  | 
2 | C#CCCC(=O)NCCOCCOCCC(=O)N[C@@H](CCC1(C)N=N1)C(=O)NCCOCCOCCN1CC2CN(CC(=C)[C@@H]3CC[C@@](C)(C=C)[C@H](C(=C)C)C3)CC2C1 (stereo partly drawn) [Compound 5] |  |  | more than 10 times |  | more than 5 times | more than 10 times |  |  |  | 14.1 ± 1.72 | 17.1 ± 0.8 | 28.4 ± 3.36 |  | 
3 | C=C[C@]1(C)CC[C@@H](C(=C)CN2CC3CN(C)CC3C2)C[C@H]1C(=C)C (stereo partly drawn) [Compound 7] |  |  | more than 10 times |  |  |  |  |  |  | 23.3 ± 0.84 | 24.3 ± 4.02 | 43.4 ± 2.14 |  | 
4 | C=C[C@]1(C)CC[C@@H](C(=C)C)C[C@H]1C(=C)C [β-elemene, reference compound] | 218 ± 9.58 | 306 ± 31.7 |  | 213 ± 5.29 |  |  |  |  |  |  |  |  | greatly weakened | can competitively bind to Compound 2

Now from value to compound, other results behind:

Row | IC50 ([1]; U87-MG cells, CCK-8) [µM] | IC50 ([2]; HuH-1, Huh1 cells, 48 h, CCK-8) [µM] | IC50 times lower than that of β-elemene [2] | IC50 ([3]; A549 cells, 48 h, CCK-8) [µM] | IC50 times lower than that of β-elemene [3] | IC50 times lower than that of β-elemene [1] | SMILES | intracellular Rhodamine Red fluorescence, with UV irradiation ([4]; 20 μM, with UV irradiation (365 nm, 15 min)) | intracellular Rhodamine Red fluorescence, without UV irradiation ([4]; 20 μM, without UV irradiation) | binding of the probe to the target ([4]; conclusion from competition imaging) | IC50 [1] [µM] | IC50 ([2]; HuH-1, 48 h) [µM] | IC50 ([3]; A549, 48 h) [µM] | intensity of intracellular Rhodamine Red fluorescence of Compound 2 in presence of competitor ([4]; competitor β-elemene (50 μM) with Compound 2 (20 μM), UV irradiation) | competitive binding ([4]; versus Compound 2, conclusion from competition imaging)
5 | 38.7 ± 1.91 | 18.7 ± 1.54 | more than 10 times | 29.3 ± 1.63 | more than 5 times |  | C#CCCC(=O)NCCOCCOCCC(=O)N[C@H](CCC1(C)N=N1)C(=O)N1CCN(CC(=C)[C@@H]2CC[C@@](C)(C=C)[C@H](C(=C)C)C2)CC1 [Compound 1] |  |  |  |  |  |  |  | 
6 | 25.5 ± 4.79 | 20.12 ± 0.16 | more than 10 times | 37.8 ± 3.36 | more than 5 times |  | C#CCCC(=O)NCCOCCOCCC(=O)N[C@H](CCC1(C)N=N1)C(=O)NCCN1CCN(CC(=C)[C@@H]2CC[C@@](C)(C=C)[C@H](C(=C)C)C2)CC1 [Compound 2] | strong intracellular Rhodamine Red fluorescence | no intracellular Rhodamine Red fluorescence | non-covalent |  |  |  |  | 
7 | 19.3 ± 3.3 | 22.8 ± 3.07 | more than 10 times | 44.6 ± 7.68 |  | more than 10 times | C#CCCC(=O)NCCOCCOCCC(=O)N[C@H](CCC1(C)N=N1)C(=O)NCCOCCOCCN1CCN(CC(=C)[C@@H]2CC[C@@](C)(C=C)[C@H](C(=C)C)C2)CC1 [Compound 3] |  |  |  |  |  |  |  | 
